The text below walks through data of US11389415B2, “Methods of regulating cannabinoid receptor activity-related disorders and diseases” (The United States of America as represented by the …, priority 2012, dated 2022).

One data set deals with rat C6 glioma xenograft. Kind of data set: C6 tumor xenograft in mice, tumor growth. Type of data set: in vivo, mouse. The method, then:
C6 tumor xenograft in mice. In order to assess the ability of MNF to induce regression of tumor growth in vivo, rat C6 glioma cells were trypsin-collected at confluency and were used to generate tumor xenografts. Athymic female nude mice (SWISS nu+/nu+) were obtained from Charles Rivers (L'Arbresle, France) and maintained under pathogen-free conditions with a 12 hours light/12 hours dark cycle. Animals were fed ad libitum with normal chow (supplier). Athymic nude mice were inoculated subcutaneously with […] containing 0.5×10^6 C6 glioma cells in the left flank and then were randomly divided into two groups of 10 animals each. Starting 3 days after cell inoculation, mice received daily intraperitoneal injection (10 μl·g-1 body weight) of vehicle or MNF (2 mg·kg-1) in 100 μM ascorbic acid in saline (vehicle) five days a week for 19 days. Animal survival was monitored daily, and tumor size was determined with the use of a caliper to measure the length (a) and width (b) and estimated as 4/3π×rl2×r2, where rl is the smaller and r 2 the larger radius. […] The mice were euthanized by cervical […], and tumor masses were removed, weighed and washed with cold PBS before being snap-frozen in liquid nitrogen. A second set of studies with 8-9 animals in both groups was repeated.

In another data set the test system is cyclin A and cyclin D1. Nature of the data set: Western blot of cell cycle regulator proteins (cyclin A, cyclin D1), C6 glioma. The arrangement: species or system mouse. Particulars: C6 glioma in vivo and in vitro. The source says: Western Blot Analysis. Frozen tumor tissues were lysed with radioimmune precipitation buffer containing EGTA and EDTA (Boston BioProducts, Ashland, Mass.) supplemented with a phosphatase inhibitor cocktail (EMB-Calbiochem), and protease inhibitor cocktail (Sigma-Aldrich), according to standard protocols. Equal amounts of protein from the clarified lysates were separated by SDS-polyacrylamide gel electrophoresis under reducing conditions (Invitrogen, Carlsbad, Calif.), and electrotransferred onto polyvinylidene difluoride membranes using the iBlot system (Invitrogen). Western blots were performed according to standard methods, which involved blocking the membrane in 5% non-fat milk, followed by sequential incubation method with the primary antibody of interest and secondary antibody conjugated with the enzyme horseradish peroxidase. The detection of immunoreactive bands was performed by chemiluminescence using the ECL Plus Western Blotting Detection System (GE Healthcare, Piscataway, N.J.). Quantitation of the protein bands was done by volume densitometry using ImageJ software (National Institutes of Health, Bethesda, Md.). […]
Background: Immunoblotting shows a protein as a band on a membrane.

For data set [1], the system named is HepG2 cells. Nature of the data set: Cell cycle analysis by flow cytometry in HepG2 cells. Particulars: HepG2, 1 μM. Type of data set: cell-based, human. The method, then:
Cell Cycle Analysis. Cell cycle distributions were performed by flow cytometry on propidium iodide-stained nuclei prepared by the NIM technique. DNA histograms of at least 10,000 cells acquired on a Becton-Dickinson FACScanto II (BD Biosciences, San Jose, Calif.) were deconvoluted using the Multicycle program (Phoenix Flow Systems) for estimates of the percentage of cells in the G0/1, S, and G2+M phases of the cell cycle. Debris and doublets were removed from the analysis by software algorithms.

The test system of data set [2] is HepG2 cells. Nature of the data set: Scratch wound-healing assay, HepG2 cells. In kind it is cell-based, human. Particulars: HepG2, 1 μM. The method, then:
Scratch assays. These assays were carried out essentially as described previously (Fiori et al., Endocrinology 150: 2551-2560, 2009). In brief, cells were seeded in 12-well nontreated polystyrene cell culture plates with flat bottom (Greiner Bio-One, Monroe, N.C.). Once the cells became confluent, a scratch wound was made with a pipette tip and pictured immediately (time 0). […] Cell migration was examined at 12, 24, 36, 48 hours and 12, 18, 24, 48 hours after scratch for the HepG2 and PANC-1 cells, respectively. Images of the same field were taken every 3 hours to determine the rate of cell migration. Images were captured on an Axiovert 200 inverted microscope (Carl Zeiss, Thornwood, N.Y.) mounted with an AxioCam HRc digital camera (Carl Zeiss) and the measurement of scratch area was performed with ImageJ 1.46s software (National Institutes of Health, Bethesda, Md.). Each study was performed in duplicate dishes and repeated at least twice.

A further data set concerns ERK1/2. Nature of the data set: ERK1/2 phosphorylation (GPR55 downstream signaling) in HepG2 cells. In kind it is cell-based, human. The method, then: Western blot analysis. For detection of intracellular signaling proteins, cells were lysed in radioimmunoprecipitation buffer containing EGTA and EDTA (Boston BioProducts, Ashland, Mass.). The lysis buffer contained a protease inhibitor cocktail (Sigma-Aldrich) and phosphatase inhibitor cocktail (Calbiochem, San Diego, Calif.). Equivalent amount of proteins (14 and 54 μg/well for PANC-1 and HepG2 cells, respectively) were separated on 4 to 12% precast gels (Invitrogen, Carlsbad, Calif.) using SDS-polyacrylamide gel electrophoresis under reducing conditions and then electrophoretically transferred onto polyvinylidene fluoride membrane (Invitrogen). Western blots were performed according to standard methods, which involved blocking in 5% non-fat milk and incubated with the antibody of interest, followed by incubation with a secondary antibody conjugated with the enzyme horseradish perodixase. The detection of immunoreactive bands was performed by chemiluminescence using the ECL Plus Western Blotting Detection System (GE Healthcare, Piscataway, N.J.). The quantification of bands was done by volume densitometry by using ImageJ software. The rabbit polyclonal antibodies against EGFR were obtained from Cell Signaling Technology, Inc. (Beverly, Mass.) and the monoclonal anti-Hsp90 was purchased from Santa Cruz Biotechnology, Inc. (Santa Cruz, Calif.).
Effect of MNF on O-1602-mediated increase in cell signaling. Serum-starved cells were pretreated in the absence or presence of 1 μM MNF for 10 minutes followed by a 10 minute incubation with 0, 2.5 and 10 μM O-1602 or 10% FBS, after which the levels of total ERK2 and phosphorylated forms of ERK1/2 (pErk1/2, Thr202/Tyr204), were determined by Western blotting technique. All primary antibodies were purchased from Cell Signaling Technology and used at a dilution recommended by the manufacturer.

Data set [3] can be described thus: Effect on central nervous system functions. Type of data set: in vivo. Particulars: as compared to tetrahydrocannabinol. Here is the method: Additional studies were performed which further evaluated the effect of MNF on central nervous system functions.

“Also recorded” adds a separate entry of the source.

Regarding `COc1ccc(C[C@@H](C)NC[C@H](O)c2cc(O)cc(O)c2)c2ccccc12` [(R,R′)-MNF, (R,R′)-4′-methoxy-1-naphthylfenoterol], the “average AUC±SEM (tumor volume over time, FIG. 19B)” value in the data set on rat C6 glioma xenograft (C6 tumor-bearing female nude mice, 2 mg/kg, five days a week for 19 days, n=19 (vehicle 5450±518)) stood at 3217±265. For the same compound, in the data set on rat C6 glioma xenograft (C6 xenograft in nude mice, 2 mg/kg intraperitoneal), the “tumor volume compared with vehicle-treated group” value is reported as “Significant reduction in mean tumor volumes; also recorded: Significant reduction in tumor volume”. For the same compound, the “expression of cell cycle regulator proteins” value with cyclin A and cyclin D1 is recorded as “marked reduction in the expression of cell cycle regulator proteins”. The G2/M-phase cell population was 10.2±0.9% with HepG2 cells [1] (after 6 h (control 13.8±1.1%)), 14.6±1.8% with HepG2 cells [1] (after 12 h) and 8.9±1.6% in the data set on HepG2 cells [1] (after 24 h). In addition, the results for the S-phase cell population in the data set with HepG2 cells [1] (after 6 h (control 34.7±0.3%)), in the data set on HepG2 cells [1] (after 12 h) and with HepG2 cells [1] (after 24 h) were 34.1±0.9%, 13.7±1.2% and 24.6±4.2%, respectively. For the same compound, the “number of sub-G1 events, maximum” value in the data set with HepG2 cells [1] (by 12 hours) was determined as 21.5±0.7%. Moreover, in the data set on HepG2 cells [2], the “cell motility, compound alone” value is listed as “had no effect on the motility of HepG2 cells”. Besides, the “effect on AM251-mediated increase in cell motility” value in the data set with HepG2 cells [2] (AM251 1 μM) is reported as “significant inhibitory effect toward AM251-mediated increase in cell motility”. Moreover, the “effect on wound closure evoked by O-1602” value in the data set with HepG2 cells [2] (O-1602 1 μM) is on record as “absent in HepG2 cells”. Also, the “effect on O-1602-mediated ERK phosphorylation” value in the data set with ERK1/2 (HepG2, 1 μM pretreatment 10 minutes) is recorded as “abrogated O-1602 responsiveness”. For the same compound, the “effect on serum-induced ERK phosphorylation” value in the data set with ERK1/2 (HepG2, 1 μM pretreatment, 10% FBS) is recorded as “potently inhibited serum-induced ERK phosphorylation in both cell lines”. Also, the “effects on the central nervous system” value in data set [3] is given as “not have any significant negative effects on the central nervous system”.
